Measurements reported in PubChem BioAssay AID330 (DTP/NCI, 2004).
Several values for one entry are separate records, joined by “and”; a condition that tells them apart may be missing. Equal entries are not always repeated. Inconclusive results and toxic doses are left out.

System: P388 leukemia ip, CD2F1 mice, survival T/C
Experiment: NCI In Vivo Anticancer Drug Screen. Data for tumor model P388 Leukemia (intraperitoneal) in CD2F1 (CDF1) mice
Settings: endpoint: median survival time, higher = longer survival
Outline: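 Mice carrying the transplanted tumor received test compound or vehicle. Survival was recorded in each group, and the value is the treated-group measurement divided by that of the vehicle-treated control group.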

[1] = dose: 50.0 mg/kg/injection, schedule: Q01DX009 (ip), vehicle: saline
[2] = dose: 100.0 mg/kg/injection, schedule: Q01DX009 (ip), vehicle: saline
[3] = dose: 200.0 mg/kg/injection, schedule: Q01DX009 (ip), vehicle: saline

With `NC(=O)c1cc(Br)ccc1[N+](=O)[O-]` the T/C [1] was 97 % of control, the T/C [2] was 97 % of control and the T/C [3] was 87 % of control.
For `CC[C@]1(O)C[C@H]2CN(CCc3c([nH]c4ccccc34)[C@@](C(=O)OC)(c3cc4c(cc3OC)N(C)[C@H]3[C@@](O)(C(=O)OC)[C@H](OC(C)=O)[C@]5(CC)C=CCN6CC[C@]43[C@@H]65)C2)C1`, the T/C (dose: 0.03 mg/kg/injection, schedule: Q04DX003 (ip), vehicle: water) was 100 % of control, the T/C (dose: 0.13 mg/kg/injection, schedule: Q01DX005 (ip), vehicle: saline) was 172 % of control and the T/C (dose: 0.13 mg/kg/injection, schedule: Q01DX009 (ip), vehicle: saline) was 162 % of control. The T/C (dose: 0.16 mg/kg/injection, schedule: Q01DX009 (ip), vehicle: saline) was 160 % of control, the T/C (dose: 0.25 mg/kg/injection, schedule: Q01DX005 (ip), vehicle: saline) was 202 % of control and the T/C (dose: 0.38 mg/kg/injection, schedule: Q04DX003 (ip), vehicle: saline) was 162 % of control. The T/C (dose: 0.4 mg/kg/injection, schedule: Q04DX003 (ip), vehicle: water) was 160 % of control, the T/C (dose: 0.45 mg/kg/injection, schedule: Q01DX009 (ip), vehicle: saline) was 168 % of control and the T/C (dose: 0.5 mg/kg/injection, schedule: Q01DX001 (ip), vehicle: saline) was 150 % of control. For the same compound, the T/C (dose: 0.5 mg/kg/injection, schedule: Q01DX005 (ip), vehicle: saline) was 163 % of control and 177 % of control, the T/C (dose: 0.5 mg/kg/injection, schedule: Q04DX003 (ip), vehicle: saline) was 169 % of control and the T/C (dose: 0.52 mg/kg/injection, schedule: Q04DX002 (ip), vehicle: saline) was 157 % of control. The T/C (dose: 0.63 mg/kg/injection, schedule: Q04DX003 (ip), vehicle: saline) was 157 % of control and 248 % of control, the T/C (dose: 0.64 mg/kg/injection, schedule: Q04DX002 (ip), vehicle: saline) was 179 % of control and the T/C (dose: 0.65 mg/kg/injection, schedule: Q04DX003 (ip), vehicle: saline) was 173 % of control. For the same compound, the T/C (dose: 0.67 mg/kg/injection, schedule: Q04DX003 (ip), vehicle: saline) was 185 % of control, the T/C (dose: 0.75 mg/kg/injection, schedule: Q01DX009 (ip), vehicle: saline) was 91 % of control and the T/C (dose: 0.75 mg/kg/injection, schedule: Q04DX003 (ip), vehicle: saline) was 198 % of control. For the same compound, the T/C (dose: 0.8 mg/kg/injection, schedule: Q01DX009 (ip), vehicle: saline) was 90 % of control, the T/C (dose: 0.8 mg/kg/injection, schedule: Q04DX003 (ip), vehicle: water) was 173 % of control and 185 % of control and the T/C (dose: 0.86 mg/kg/injection, schedule: Q04DX002 (ip), vehicle: saline) was 196 % of control. The T/C (dose: 1.0 mg/kg/injection, schedule: Q01DX001 (ip), vehicle: Klucel (hydroxypropylcellulose) (HPC)) was 163 % of control, the T/C (dose: 1.0 mg/kg/injection, schedule: Q01DX001 (ip), vehicle: saline) was 162 % of control and the T/C (dose: 1.0 mg/kg/injection, schedule: Q04DX003 (ip), vehicle: water) was 150 % of control. The T/C (dose: 1.08 mg/kg/injection, schedule: Q04DX002 (ip), vehicle: saline) was 199 % of control, the T/C (dose: 1.08 mg/kg/injection, schedule: Q04DX003 (ip), vehicle: saline) was 186 % of control and 201 % of control and the T/C (dose: 1.2 mg/kg/injection, schedule: Q04DX003 (ip), vehicle: saline) was 189 % of control. For the same compound, the T/C (dose: 1.44 mg/kg/injection, schedule: Q04DX002 (ip), vehicle: saline) was 197 % of control and 198 % of control, the T/C (dose: 1.44 mg/kg/injection, schedule: Q04DX003 (ip), vehicle: saline) was 97 % of control and the T/C (dose: 1.6 mg/kg/injection, schedule: Q04DX003 (ip), vehicle: water) was 228 % of control and 229 % of control and 234 % of control. For the same compound, the T/C (dose: 1.8 mg/kg/injection, schedule: Q04DX002 (ip), vehicle: saline) was 218 % of control, the T/C (dose: 1.8 mg/kg/injection, schedule: Q04DX003 (ip), vehicle: saline) was 213 % of control and 220 % of control and the T/C (dose: 2.0 mg/kg/injection, schedule: Q01DX001 (ip), vehicle: clinical formulation) was 150 % of control. The T/C (dose: 2.0 mg/kg/injection, schedule: Q04DX003 (oral), vehicle: water) was 110 % of control, the T/C (dose: 2.4 mg/kg/injection, schedule: Q04DX002 (ip), vehicle: saline) was 376 % of control and the T/C (dose: 3.2 mg/kg/injection, schedule: Q04DX003 (ip), vehicle: water) was 100 % of control. For the same compound, the T/C (dose: 3.33 mg/kg/injection, schedule: Q04DX003 (ip), vehicle: saline) was 240 % of control, the T/C (dose: 4.0 mg/kg/injection, schedule: Q01DX001 (ip), vehicle: Klucel (hydroxypropylcellulose) (HPC)) was 216 % of control and the T/C (dose: 4.0 mg/kg/injection, schedule: Q01DX001 (ip), vehicle: clinical formulation) was 171 % of control and 177 % of control. The T/C (dose: 4.0 mg/kg/injection, schedule: Q01DX001 (ip), vehicle: saline) was 162 % of control and 200 % of control, the T/C (dose: 8.0 mg/kg/injection, schedule: Q01DX001 (ip), vehicle: Klucel (hydroxypropylcellulose) (HPC)) was 177 % of control and the T/C (dose: 8.0 mg/kg/injection, schedule: Q01DX001 (ip), vehicle: clinical formulation) was 190 % of control. For the same compound, the T/C (dose: 125.0 micrograms/kg/injection, schedule: Q01DX009 (ip), vehicle: water) was 172 % of control, the T/C (dose: 250.0 micrograms/kg/injection, schedule: Q01DX009 (ip), vehicle: water) was 164 % of control and the T/C (dose: 500.0 micrograms/kg/injection, schedule: Q01DX009 (ip), vehicle: water) was 92 % of control.
`CCC1=Nc2ccccc2C(c2ccccc2)NC1=O` (stereo not given) was tested, and the T/C (dose: 60.0 mg/kg/injection, schedule: Q01DX005 (ip), vehicle: Klucel (hydroxypropylcellulose) (HPC)) was 97 % of control, the T/C (dose: 120.0 mg/kg/injection, schedule: Q01DX005 (ip), vehicle: Klucel (hydroxypropylcellulose) (HPC)) was 100 % of control and the T/C (dose: 240.0 mg/kg/injection, schedule: Q01DX005 (ip), vehicle: Klucel (hydroxypropylcellulose) (HPC)) was 94 % of control.
`Cn1c2c(c3cc(Cl)cc(Cl)c31)-c1ncncc1CC2` was tested, and the T/C (dose: 100.0 mg/kg/injection, schedule: Q04DX002 (ip), vehicle: saline with Tween-80) was 98 % of control, the T/C (dose: 200.0 mg/kg/injection, schedule: Q04DX002 (ip), vehicle: saline with Tween-80) was 98 % of control and the T/C (dose: 400.0 mg/kg/injection, schedule: Q04DX002 (ip), vehicle: saline with Tween-80) was 95 % of control.
`O=C(CN1CCN(c2ccccc2)CC1)n1ccnc1` was tested, and the T/C (dose: 60.0 mg/kg/injection, schedule: Q01DX005 (ip), vehicle: saline with Tween-80) was 95 % of control, the T/C (dose: 120.0 mg/kg/injection, schedule: Q01DX005 (ip), vehicle: saline with Tween-80) was 97 % of control and the T/C (dose: 240.0 mg/kg/injection, schedule: Q01DX005 (ip), vehicle: saline with Tween-80) was 100 % of control.
With `CCOc1c(N=Nc2ccc(Cl)cc2Cl)c(C)nn1C(=S)S` the T/C (dose: 60.0 mg/kg/injection, schedule: Q01DX005 (ip), vehicle: Klucel + Tween-80) was 90 % of control, the T/C (dose: 120.0 mg/kg/injection, schedule: Q01DX005 (ip), vehicle: Klucel + Tween-80) was 103 % of control and the T/C (dose: 240.0 mg/kg/injection, schedule: Q01DX005 (ip), vehicle: Klucel + Tween-80) was 100 % of control.
`CCOc1ccc(N2CC(=O)N3CCCCN3C(=O)C2)cc1` was tested, and the T/C (dose: 50.0 mg/kg/injection, schedule: Q01DX005 (ip), vehicle: Klucel (hydroxypropylcellulose) (HPC)) was 112 % of control, the T/C (dose: 100.0 mg/kg/injection, schedule: Q01DX005 (ip), vehicle: Klucel (hydroxypropylcellulose) (HPC)) was 103 % of control and the T/C (dose: 200.0 mg/kg/injection, schedule: Q01DX005 (ip), vehicle: Klucel (hydroxypropylcellulose) (HPC)) was 105 % of control.
`NC(Cc1cccc(NP(=S)(N2CC2)N2CC2)c1)C(=O)O` (stereo not given) was tested, and the T/C (dose: 12.5 mg/kg/injection, schedule: Q04DX003 (ip), vehicle: saline) was 109 % of control, the T/C (dose: 25.0 mg/kg/injection, schedule: Q04DX003 (ip), vehicle: saline) was 118 % of control and the T/C [1] was 159 % of control. The T/C (dose: 50.0 mg/kg/injection, schedule: Q04DX003 (ip), vehicle: saline with Tween-80) was 103 % of control, the T/C (dose: 75.0 mg/kg/injection, schedule: Q04DX003 (ip), vehicle: saline with Tween-80) was 92 % of control and the T/C [2] was 181 % of control. The T/C (dose: 100.0 mg/kg/injection, schedule: Q04DX003 (ip), vehicle: saline) was 183 % of control, the T/C [3] was 209 % of control and the T/C (dose: 200.0 mg/kg/injection, schedule: Q04DX003 (ip), vehicle: saline) was 225 % of control. For the same compound, the T/C (dose: 264.0 mg/kg/injection, schedule: Q04DX003 (ip), vehicle: saline) was 195 % of control and the T/C (dose: 400.0 mg/kg/injection, schedule: Q04DX003 (ip), vehicle: saline) was 245 % of control and 250 % of control.
In the case of `CCCCNC(c1ccc(N(CC)CC)cc1)C(Cl)(Cl)Cl` (stereo not given), the T/C (dose: 50.0 mg/kg/injection, schedule: Q01DX005 (ip), vehicle: saline) is reported as 105 % of control and 106 % of control, the T/C (dose: 50.0 mg/kg/injection, schedule: Q01DX005 (ip), vehicle: water) is reported as 100 % of control and the T/C (dose: 100.0 mg/kg/injection, schedule: Q01DX005 (ip), vehicle: saline) is reported as 108 % of control and 116 % of control. The T/C (dose: 100.0 mg/kg/injection, schedule: Q01DX005 (ip), vehicle: water) was 93 % of control and the T/C (dose: 200.0 mg/kg/injection, schedule: Q01DX005 (ip), vehicle: saline) was 110 % of control.
In the case of `[F][Sn]([F])([c]1ccccc1)[c]1ccccc1`, the T/C (dose: 1.56 mg/kg/injection, schedule: Q01DX009 (ip), vehicle: Klucel (hydroxypropylcellulose) (HPC)) is reported as 196 % of control.
